Laboratory results from patent US20100298758A1, “METHOD FOR NON-THERAPEUTIC OR THERAPEUTIC PHOTODYNAMIC SKIN TREATMENT” (priority 2007, published 2010).

System: cancer cells with high metabolism
Experiment: Fluorescence after administration of 5-ALA in actinic keratosis (FIG. 5)
Type: in vivo
Details: other investigations

NCC(=O)CCC(=O)O [5-ALA, 5-aminolevulinic acid]
fluorescence in cancer cells compared to normal cells: high selective fluorescence in cancer cells
